Tests used:
[1] = target: T1, human recombinant Bcl-2 protein (Homo sapiens, UniProt P10415); assay: Fluorescence polarization test for inhibition of BCL-2 binding to FITC-BIM; settings: 5 nM BCL-2, 5 nM FITC-BIM, read-out: FP BCL-2 IC50
T1 construct: purchased Beijing Yigiao Shenzhou Biotechnology Co., Ltd. 10195-HOSE
Procedure: Fluorescence polarization assay was used to evaluate the effect of the compounds of the present invention on the biological activity of BCL-2.
The effects of the compounds on the biological activity of BCL-2 were evaluated by determining the effects of the compounds on the binding activity of BCL-2 to leukemia pro-apoptotic protein (BIM) using an affinity assay method based on the principle of fluorescence polarization. The reaction buffer comprises the following components: PBS (pH 7.4, 3 mM Na2HPO4, 155 mM NaCl, 1 mM KH2PO4), 1 mM DTT; human recombinant Bcl-2 protein (Item No. 10195-HOSE) (purchased from Beijing Yigiao Shenzhou Biotechnology Co., Ltd.) was diluted to 5 nM with the reaction buffer; FITC-labeled BIM polypeptide (purchased from Nanjing GenScript Biotechnology Co., Ltd.) was diluted to 5 nM with the reaction buffer.
The compounds were dissolved in 100% DMSO and diluted to 0.1, 1, 10 μM, followed by 4-fold serial dilutions with DMSO to a minimum concentration of 0.0061, 0.061, 0.61 nM, each concentration point was further diluted 50-fold with the reaction buffer.
3 μL of solution containing the compound and 12 μL of solution containing BCL-2 were added to the black 384-well assay plate, mixed well, and incubated at room temperature for 15 minutes. Subsequently, 15 μL of FITC-BIM solution was added, and the reaction mixture was incubated at room temperature for 30 minutes in dark place, and then the fluorescence polarization was detected immediately on an Envision multi-mode reader (Perkin Elmer), with 480 nm as the excitation wavelength and 535 nm as the emission wavelength. In this experiment, the group without BCL-2 protein was used as a negative control (100% inhibition), and the group with BCL-2 protein but without the compound was used as a positive control (0% inhibition). The inhibition percentage of the compound to the affinity of BCL-2 can be calculated using the following equation: […]
(§1) The IC50 of the compound was calculated from 8 concentration points using XLfit (ID Business Solutions Ltd., UK) software by the following equation:
(§2) Y=Bottom+(Top−Bottom)/(1+10^((log IC50−X)*slope factor))
(§3) where Y is the inhibition percentage, X is the logarithm of the concentration of the compound to be tested, Bottom is the maximum inhibition percentage, Top is the minimum inhibition percentage, and slope factor is the slope coefficient of the curve.

[2] = target: T2, human recombinant Bcl-XL protein (Homo sapiens, UniProt Q07817); assay: Fluorescence polarization test for inhibition of BCL-XL binding to FITC-BIM; settings: 10 nM BCL-XL, 10 nM FITC-BIM, read-out: FP BCL-XL IC50
T2 construct: purchased Beijing Yiqiao Shenzhou Biotechnology Co., Ltd. 10455-H0SE
T2 sequence (Q07817 whole entry): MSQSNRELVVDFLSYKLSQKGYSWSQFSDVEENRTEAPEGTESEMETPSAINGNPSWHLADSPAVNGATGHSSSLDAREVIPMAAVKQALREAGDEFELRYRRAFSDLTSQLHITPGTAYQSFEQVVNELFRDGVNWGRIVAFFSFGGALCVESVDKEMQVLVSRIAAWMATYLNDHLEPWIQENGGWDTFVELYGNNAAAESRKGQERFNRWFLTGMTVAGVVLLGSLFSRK
Procedure: Fluorescence polarization assay was used to evaluate the effect of the compounds of the present invention on the biological activity of BCL-XL.
The effects of the compounds on the biological activity of BCL-XL were evaluated by detecting the effects of the compounds on the binding activity of BCL-XL to BIM using an affinity assay method based on the principle of fluorescence polarization. The reaction buffer contains the following components: PBS (pH 7.4, 3 mM Na2HPO4, 155 mM NaCl, 1 mM KH2PO4), 1 mM DTT; human recombinant Bcl-XL protein (Item No. 10455-H0SE) (purchased from Beijing Yiqiao Shenzhou Biotechnology Co., Ltd.) was diluted to 10 nM with reaction buffer; FITC-labeled BIM polypeptide (purchased from Nanjing GenScript Biotechnology Co., Ltd) was diluted to 10 nM with reaction buffer.
The compounds were dissolved in 100% DMSO and diluted to 1 μM, followed by 4-fold serial dilutions in DMSO to a minimum concentration of 0.061 nM, each concentration point was further diluted 50-fold with reaction buffer.
3 μL of solution containing the compound and 12 μL of solution containing BCL-XL were added to the black 384-well assay plate, mixed well, and incubated at room temperature for 15 minutes. Subsequently, 15 μL of FITC-BIM solution was added, and the reaction mixture was incubated at room temperature for 30 minutes in the dark place, and then the fluorescence polarization was detected immediately on an Envision multi-plate reader (Perkin Elmer), with 480 nm as the excitation wavelength and 535 nm as the emission wavelength. In this experiment, the group without BCL-XL protein was used as a negative control (100% inhibition), and the group with BCL-XL protein but without the compound was added as a positive control (0% inhibition). The inhibition percentage of the compound to the affinity of BCL-XL can be calculated using the following equation: […]
as §1, §2, §3

[3] = tested on: RS4;11 cells (acute lymphoblastic leukemia cells); assay: RS4;11 cell proliferation, CellTilter-Glo luminescence cell viability assay; format: cell-based; settings: Homo sapiens, RS4-11; CTG readout after 48 hours
Procedure: The effects of the compounds of the present invention on the proliferation of RS4;11 cells were evaluated using a luminescence cell viability assay.
A CellTilter-Glo (CTG) Assay Kit is used to detect ATP, a key indicator of the metabolism of living cells, through a unique, highly sensitive and stable luciferase. The luminescent signal generated in the assay is proportional to the number of the viable cells in the medium, therefore the cell proliferation of RS4;11 can be determined.
CellTilter-Glo reagent (Promega, G7572) is composed of CellTilter-Glo lyophilized powder and CellTilter-Glo buffer, and the lyophilized powder can be dissolved in the buffer for use.
RS4;11 cells (ATCC, CRL-1873) were cultured in RPMI1640 complete medium (Thermofisher, 72400-047) containing 10% FBS (GBICO, 10099-141) and 100 units/ml penicillin-streptomycin solution (Thermofisher, 15140122)), when the cells covered 80-90% in the culture vessel, they were digested and dispersed with 0.25% trypsin (containing EDTA) (Thermofisher, 25200056) and then planted in a white 384-well plate (Thermofisher, 164610), and then the 384-well plate was incubated overnight in a 37° C., 5% CO2 incubator. Compounds were dissolved in 100% DMSO and diluted to […], followed by 4-fold serial dilutions with DMSO to a minimum concentration of 0.061 μM, and each concentration point was further diluted 50-fold with FBS-free RPMI1640 medium. If the IC50 of the compound is very low, the initial concentration of the compound can be reduced. After overnight, 3 μL of the compound diluted in the medium was added to each well, and the mixture was gently centrifuged to mix. The group without cells was used as a negative control (100% inhibition), and the group with 0.2% DMSO was used as a positive control (0% inhibition). The 384-well plate was placed in a 37° C., 5% CO2 incubator for further cultivation. After 48 hours, the plate was taken out and equilibrated to room temperature. 15 μl of CTG reagent was added to each well, the plate was shaken gently for 3 minutes to make sure that the cell lysis was carried out thoroughly, then the plate was kept for 10 minutes to stabilize the luminescence signal, then the luminescence signal was read by EnVision (Perkin Elmer).
The inhibition percentage of the compounds to RS4;11 cell proliferation can be calculated using the following equation:
Inhibition Percentage=100−100*(signal compound-signal negative control)/(signal positive control-signal negative control)
as §1
Y=Bottom+(Top−Bottom)/(1+10^((Log IC50−X)*slope factor))
wherein, Y is the inhibition percentage, Bottom is the bottom plateau of the curve (the bottom plateau value of the S-shaped curve), Top is the top plateau of the curve (the top plateau value of the S-shaped curve), and X is the logarithm of the concentration of the compound to be tested.

T1 sequence (P10415 whole entry): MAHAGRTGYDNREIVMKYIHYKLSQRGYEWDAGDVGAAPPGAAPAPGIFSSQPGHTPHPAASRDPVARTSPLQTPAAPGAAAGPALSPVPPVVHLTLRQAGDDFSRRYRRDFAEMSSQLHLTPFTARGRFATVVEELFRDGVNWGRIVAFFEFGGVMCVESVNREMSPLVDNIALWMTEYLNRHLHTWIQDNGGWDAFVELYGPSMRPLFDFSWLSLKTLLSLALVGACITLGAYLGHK

Row | IC50 [1] | IC50 [2] | IC50 [3] | SMILES
1 | 63.8 nM | > 1000 nM | 229 nM | C[C@H]1CN(c2ccc(C(=O)NS(=O)(=O)c3ccc(NC[C@H]4COCCO4)c([N+](=O)[O-])c3)c(Oc3cnc4[nH]ccc4c3)c2)CCN1CC1=C(c2ccc(Cl)cc2)CC(C)(C)CC1 [Example 48, N-((4-((((S)-1,4-dioxan-2-yl)methyl)amino)-3-nitrophenyl)sulfonyl)-2-((1H-pyrrolo[2,3-b]pyridin-5-yl)oxy)-4-((S)-4-((4′-chloro-5,5-dimethyl-3,4,5,6-tetrahydro-[1,1′-biphenyl]-2-yl)methyl)-3-methylpiperazin-1-yl) benzamide]
2 | 5.12 nM | > 1000 nM | 16 nM | C[C@@H]1CN(c2ccc(C(=O)NS(=O)(=O)c3ccc(NCC4CCOCC4)c([N+](=O)[O-])c3)c(Oc3cnc4[nH]ccc4c3)c2)CCN1CC1=C(c2ccc(Cl)cc2)CCC(C)(C)C1 [Example 27, (R)-2-((1H-pyrrolo[2,3-b]pyridin-5-yl)oxy)-4-(4-((4′-chloro-4,4-dimethyl-3,4,5,6-tetrahydro-[1,1′-biphenyl]-2-yl)methyl)-3-methylpiperazin-1-yl)-N-((3-nitro-4--(((tetrahydro-2H-pyran-4-yl)methyl)amino)phenyl)sulfonyl)benzamide]
3 | 1.09 nM | > 1000 nM | 18 nM | C[C@@H]1CN(CC2=C(c3ccc(Cl)cc3)CC(C)(C)CC2)CCN1c1ccc(C(=O)NS(=O)(=O)c2cc(F)c(NC[C@H]3COCCO3)c([N+](=O)[O-])c2)c(Oc2cnc3[nH]ccc3c2)c1 [Example 46]

The remaining lines, values behind:

Row | SMILES | IC50 [1] | IC50 [2] | IC50 [3]
4 | C[C@@H]1CN(CC2=C(c3ccc(Cl)cc3)CC(C)(C)CC2)CCN1c1ccc(C(=O)NS(=O)(=O)c2ccc(NCC3CCN(C4COC4)CC3)c([N+](=O)[O-])c2)c(Oc2cnc3[nH]ccc3c2)c1 [Example 9, (R)-2-((1H-pyrrolo[2,3-b]pyridin-5-yl)oxy)-4-(4-((4′-chloro-5,5-dimethyl-3,4,5,6-tetrahydro-[1,1′-biphenyl]-2-yl)methyl)-2-methylpiperazin-1-yl)-N-((3-nitro-4-(((1-(3-oxetan-yl)piperidin-4-yl)methyl)amino)phenyl)sulfonyl) benzamide] | 5.03 nM | > 1000 nM | 26 nM
5 | C[C@H]1CCC(CN2CCN(c3ccc(C(=O)NS(=O)(=O)c4ccc(NCC5CCOCC5)c([N+](=O)[O-])c4)c(Oc4cnc5[nH]ccc5c4)c3)C[C@H]2C)=C(c2ccc(Cl)cc2)C1 [Example 15, 2-((1H-pyrrolo[2,3-b]pyridin-5-yl)oxy)-4-((R)-4-(((S)-4′-chloro-5-methyl-3,4,5,6-tetrahydro-[1,1′-biphenyl]-2-yl)methyl)-3-methylpiperazin-1-yl)-N-((3-nitro-4-(((tetrahydro-2H-pyran-4-yl)methyl)amino)phenyl)sulfonyl)benzamide] | 5.99 nM | > 1000 nM | 19 nM
6 | C[C@H]1CCC(CN2CCN(c3ccc(C(=O)NS(=O)(=O)c4ccc(NC[C@H]5COCCO5)c([N+](=O)[O-])c4)c(Oc4cnc5[nH]ccc5c4)c3)C[C@H]2C)=C(c2ccc(Cl)cc2)C1 [Example 16, N-((4-((((S)-1,4-dioxan-2-yl)methyl)amino)-3-nitrophenyl)sulfonyl)-2-((1H-pyrrolo[2,3-b]pyridin-5-yl)oxy)-4-((R)-4-(((S)-4′-chloro-5-methyl-3,4,5,6-tetrahydro-[1,1′-biphenyl]-2-yl)methyl)-3-methylpiperazin-1-yl) benzamide] | 3.41 nM | > 1000 nM | 8.8 nM
7 | C[C@@H]1CCC(CN2CCN(c3ccc(C(=O)NS(=O)(=O)c4cc(F)c(NC[C@H]5COCCO5)c([N+](=O)[O-])c4)c(Oc4cnc5[nH]ccc5c4)c3)C[C@H]2C)=C(c2ccc(Cl)cc2)C1 [Example 22] | 1.49 nM | > 1000 nM | 4.1 nM
8 | C[C@@H]1CCC(CN2CCN(c3ccc(C(=O)NS(=O)(=O)c4ccc(NC[C@H]5COCCO5)c([N+](=O)[O-])c4)c(Oc4cnc5[nH]ccc5c4)c3)C[C@H]2C)=C(c2ccc(Cl)cc2)C1 [Example 20, N-((4-((((S)-1,4-dioxan-2-yl)methyl)amino)-3-nitrophenyl)sulfonyl)-2-((1H-pyrrolo[2,3-b]pyridin-5-yl)oxy)-4-((R)-4-(((R)-4′-chloro-5-methyl-3,4,5,6-tetrahydro-[1,1′-biphenyl]-2-yl)methyl)-3-methylpiperazin-1-yl)benzamide] | 2.57 nM | > 1000 nM | 8.8 nM
9 | C[C@@H]1CCC(CN2CCN(c3ccc(C(=O)NS(=O)(=O)c4cc(F)c(NCC5CCOCC5)c([N+](=O)[O-])c4)c(Oc4cnc5[nH]ccc5c4)c3)C[C@H]2C)=C(c2ccc(Cl)cc2)C1 [Example 21, 2-((1H-pyrrolo[2,3-b]pyridin-5-yl)oxy)-4-((R)-4-(((R)-4′-chloro-5-methyl-3,4,5,6-tetrahydro-[1,1′-biphenyl]-2-yl)methyl)-3-methylpiperazin-1-yl)-N-((3-fluoro-5-nitro-4-(((tetrahydro-2H-pyran-4-yl)methyl)amino)phenyl)sulfonyl)benzamide] | 1.97 nM | > 1000 nM | 8.8 nM
